Data as given in US20260042731A1, “(2,4-DICHLOROPHENOXY)ACETIC ACID ANALOGS” (CORTEVA AGRISCIENCE LLC, priority 2022, published 2026).
Like-named read-outs stand apart in the source and are kept apart here.

How the values were obtained:
[1] = tested on: Ambrosia artemisiifolia (AMBEL), common ragweed; experiment: Postemergence herbicide evaluation, growth of Ambrosia artemisiifolia (AMBEL); format: in vivo; conditions: Ambrosia artemisiifolia, post-emergence, percent reduction in plant size vs untreated control, read-out: AVE. AMBEL; for pest or weed control at 280 g/ha: 280 g ae/ha; for pest or weed control at 560 g/ha: 560 g ae/ha
[2] = tested on: Chenopodium album (CHEAL), common lambsquarters; experiment: Postemergence herbicide evaluation, growth of Chenopodium album (CHEAL); format: in vivo; conditions: Chenopodium album, post-emergence, percent reduction in plant size vs untreated control, read-out: Ave. CHEAL; for pest or weed control at 280 g/ha: 280 g ae/ha; for pest or weed control at 560 g/ha: 560 g ae/ha
[3] = tested on: Amaranthus rudis (AMATA), tall water hemp; experiment: Postemergence herbicide evaluation, growth of Amaranthus rudis (AMATA); format: in vivo; conditions: Amaranthus tuberculatus, post-emergence, percent reduction in plant size vs untreated control, read-out: Ave. AMATA; for pest or weed control at 280 g/ha: 280 g ae/ha; for pest or weed control at 560 g/ha: 560 g ae/ha
[4] = tested on: glyphosate resistant Conyza canadensis (L.) (ERICA), horseweed; experiment: Postemergence herbicide evaluation, growth of Conyza canadensis (ERICA); format: in vivo; conditions: Erigeron canadensis, post-emergence, percent reduction in plant size vs untreated control, read-out: Ave. ERICA; for pest or weed control at 280 g/ha: 280 g ae/ha; for pest or weed control at 560 g/ha: 560 g ae/ha
[5] = tested on: weeds ABUTH, AMATA, AMBEL, CHEAL, ERICA; experiment: Postemergence herbicide evaluation, overall average % weed control across ABUTH, AMATA, AMBEL, CHEAL and ERICA; format: in vivo; conditions: post-emergence, average over five weeds, read-out: Overall Ave % Weed Control; for pest or weed control at 280 g/ha: 280 g ae/ha; for pest or weed control at 560 g/ha: 560 g ae/ha
[6] = Volatility of compounds measured by thermogravimetric analysis (TGA); format: physicochemical
[7] = tested on: Abutilon theophrasti (ABUTH), velvetleaf; experiment: Postemergence herbicide evaluation, growth of Abutilon theophrasti (ABUTH); format: in vivo; conditions: Abutilon theophrasti, post-emergence, percent reduction in plant size vs untreated control, read-out: AVE. ABUTH; for pest or weed control at 280 g/ha: 280 g ae/ha; for pest or weed control at 560 g/ha: 560 g ae/ha

| SMILES | pest or weed control at 280 g/ha ([1]; 168 h, 7 DAA) [%] | pest or weed control at 560 g/ha ([1]; 168 h, 7 DAA) [%] | pest or weed control at 280 g/ha ([1]; 336 h, 14 DAA) [%] | pest or weed control at 560 g/ha ([1]; 336 h, 14 DAA) [%] | pest or weed control at 560 g/ha ([1]; 504 h, 21 DAA) [%] | pest or weed control at 280 g/ha ([2]; 168 h, 7 DAA) [%] | pest or weed control at 560 g/ha ([2]; 168 h, 7 DAA) [%] | pest or weed control at 280 g/ha ([2]; 336 h, 14 DAA) [%] | pest or weed control at 560 g/ha ([2]; 336 h, 14 DAA) [%] | pest or weed control at 560 g/ha ([2]; 504 h, 21 DAA) [%] | pest or weed control at 280 g/ha ([3]; 168 h, 7 DAA) [%] | pest or weed control at 560 g/ha ([3]; 168 h, 7 DAA) [%] | pest or weed control at 280 g/ha ([3]; 336 h, 14 DAA) [%] | pest or weed control at 560 g/ha ([3]; 336 h, 14 DAA) [%] | pest or weed control at 560 g/ha ([3]; 504 h, 21 DAA) [%] | pest or weed control at 280 g/ha ([4]; 168 h, 7 DAA) [%] | pest or weed control at 560 g/ha ([4]; 168 h, 7 DAA) [%] | pest or weed control at 280 g/ha ([4]; 336 h, 14 DAA) [%] | pest or weed control at 560 g/ha ([4]; 336 h, 14 DAA) [%] | pest or weed control at 560 g/ha ([4]; 504 h, 21 DAA) [%] | also measured |
| --- | --- | --- | --- | --- | --- | --- | --- | --- | --- | --- | --- | --- | --- | --- | --- | --- | --- | --- | --- | --- | --- |
| O=C(COc1ccc(Cl)cc1Cl)Nc1ccnc(Cl)c1 [Compound D13] | 70 | 75 | 75 | 91 | 50 | 77.5 | 75 | 95 | 98 | 92.5 | 72.5 | 75 | 91 | 84 | 92 | 80 | 82.5 | 92.5 | 91.5 | 99 | pest or weed control at 280 g/ha ([1]; 504 h, 21 DAA): 94%; pest or weed control at 280 g/ha ([2]; 504 h, 21 DAA): 90%; pest or weed control at 280 g/ha ([3]; 504 h, 21 DAA): 80%; pest or weed control at 280 g/ha ([4]; 504 h, 21 DAA): 97.5%; pest or weed control at 280 g/ha ([5]; 168 h, 7 DAA): 67%; pest or weed control at 560 g/ha ([5]; 168 h, 7 DAA): 68%; pest or weed control at 280 g/ha ([5]; 336 h, 14 DAA): 78.7%; pest or weed control at 560 g/ha ([5]; 336 h, 14 DAA): 79.9%; pest or weed control at 280 g/ha ([5]; 504 h, 21 DAA): 83.8%; pest or weed control at 560 g/ha ([5]; 504 h, 21 DAA): 74.2%; TGA Data (rate of weight loss, volatility) [6]: 0.06009 µg/min; pest or weed control at 280 g/ha ([7]; 168 h, 7 DAA): 35%; pest or weed control at 560 g/ha ([7]; 168 h, 7 DAA): 32.5%; pest or weed control at 280 g/ha ([7]; 336 h, 14 DAA): 40%; pest or weed control at 560 g/ha ([7]; 336 h, 14 DAA): 35%; pest or weed control at 280 g/ha ([7]; 504 h, 21 DAA): 57.5%; pest or weed control at 560 g/ha ([7]; 504 h, 21 DAA): 37.5% |
| Cc1cc(NC(=O)COc2ccc(Cl)cc2Cl)n(C)n1 [Compound D14] | 80 | 75 | 72.5 | 97 | 100 | 72.5 | 75 | 96.5 | 90 | 100 | 75 | 75 | 90 | 91.5 | 92.5 | 82.5 | 72.5 | 94 | 94 | 100 | pest or weed control at 280 g/ha ([1]; 504 h, 21 DAA): 100%; pest or weed control at 280 g/ha ([2]; 504 h, 21 DAA): 95%; pest or weed control at 280 g/ha ([3]; 504 h, 21 DAA): 72.5%; pest or weed control at 280 g/ha ([4]; 504 h, 21 DAA): 98.5%; pest or weed control at 280 g/ha ([5]; 168 h, 7 DAA): 69.5%; pest or weed control at 560 g/ha ([5]; 168 h, 7 DAA): 69.5%; pest or weed control at 280 g/ha ([5]; 336 h, 14 DAA): 79.6%; pest or weed control at 560 g/ha ([5]; 336 h, 14 DAA): 85%; pest or weed control at 280 g/ha ([5]; 504 h, 21 DAA): 83.7%; pest or weed control at 560 g/ha ([5]; 504 h, 21 DAA): 91.5%; TGA Data (rate of weight loss, volatility) [6]: 0.01234 µg/min; pest or weed control at 280 g/ha ([7]; 168 h, 7 DAA): 37.5%; pest or weed control at 560 g/ha ([7]; 168 h, 7 DAA): 50%; pest or weed control at 280 g/ha ([7]; 336 h, 14 DAA): 45%; pest or weed control at 560 g/ha ([7]; 336 h, 14 DAA): 52.5%; pest or weed control at 280 g/ha ([7]; 504 h, 21 DAA): 52.5%; pest or weed control at 560 g/ha ([7]; 504 h, 21 DAA): 65% |
| O=C(COc1ccc(Cl)cc1Cl)NOC1CCCCO1 (stereo not drawn) [Compound D15] | 85 | 90 | 82.5 | 92.5 | 100 | 77.5 | 82.5 | 94 | 97.5 | 97.5 | 75 | 85 | 85 | 95 | 97.5 | 72.5 | 80 | 97 | 95 | 100 | pest or weed control at 286 g/ha ([1]; 504 h, 286 g ae/ha, 21 DAA): 100%; pest or weed control at 286 g/ha ([2]; 504 h, 286 g ae/ha, 21 DAA): 85%; pest or weed control at 286 g/ha ([3]; 504 h, 286 g ae/ha, 21 DAA): 72.5%; pest or weed control at 286 g/ha ([4]; 504 h, 286 g ae/ha, 21 DAA): 99.5%; pest or weed control at 280 g/ha ([5]; 168 h, 7 DAA): 76%; pest or weed control at 560 g/ha ([5]; 168 h, 7 DAA): 83.5%; pest or weed control at 280 g/ha ([5]; 336 h, 14 DAA): 89.2%; pest or weed control at 560 g/ha ([5]; 336 h, 14 DAA): 94.9%; pest or weed control at 286 g/ha ([5]; 504 h, 286 g ae/ha, 21 DAA): 91.3%; pest or weed control at 560 g/ha ([5]; 504 h, 21 DAA): 98.9%; TGA Data (rate of weight loss, volatility) ([6]; value marked *: decomposition of the material was observed): 6.9* μg/min; pest or weed control at 280 g/ha ([7]; 168 h, 7 DAA): 70%; pest or weed control at 560 g/ha ([7]; 168 h, 7 DAA): 80%; pest or weed control at 280 g/ha ([7]; 336 h, 14 DAA): 87.5%; pest or weed control at 560 g/ha ([7]; 336 h, 14 DAA): 94.5%; pest or weed control at 286 g/ha ([7]; 504 h, 286 g ae/ha, 21 DAA): 99.5%; pest or weed control at 560 g/ha ([7]; 504 h, 21 DAA): 99.5% |
